Test results published in US4820695A, “C-20-dihydro-deoxy-(cyclic amino)-derivatives of macrolide antibiotics” (priority 1987, dated 1989).
Values after ≈ are worked out from the molar mass of the structure shown. Read-outs that look alike come from different tables or passages of the source.

How the values were obtained:
Staphyloccus aureus X1.1 = experiment: MIC, standard agar-dilution assay (Table IX); format: cell-based, Staphylococcus aureus; settings: Staphylococcus aureus, read-out: MIC
[1] = tested on: Staphylococcus aureus V41; experiment: MIC, standard agar-dilution assay (Table IX); format: cell-based; settings: Staphylococcus aureus V41, Penicillin-resistant strain, read-out: MIC
[2] = tested on: Staphylococcus aureus X400; experiment: MIC, standard agar-dilution assay (Table IX); format: cell-based; settings: Staphylococcus aureus X400, Methicillin-resistant strain, read-out: MIC
[3] = tested on: Staphylococcus aureus S13E; experiment: MIC, standard agar-dilution assay (Table IX); format: cell-based; settings: Staphylococcus aureus, S13E
[4] = tested on: Staphylococcus epidermidis EPI1; experiment: MIC, standard agar-dilution assay (Table IX); format: cell-based; settings: Staphylococcus epidermidis EPI1; agar-dilution; read-out: MIC
[5] = tested on: Staphylococcus epidermidis 222; experiment: MIC, standard agar-dilution assay (Table IX); format: cell-based; settings: read-out: MIC
[6] = tested on: Streptococcus pyogenes C203; experiment: MIC, standard agar-dilution assay (Table IX); format: cell-based; settings: read-out: MIC
[7] = tested on: Streptococcus pneumoniae Park I; experiment: MIC, standard agar-dilution assay (Table IX); format: cell-based; settings: Streptococcus pneumoniae Park I; agar-dilution; read-out: MIC
[8] = tested on: Streptococcus Group D X66; experiment: MIC, standard agar-dilution assay (Table IX); format: cell-based; settings: read-out: MIC
[9] = tested on: Streptococcus Group D 2041; experiment: MIC, standard agar-dilution assay (Table IX); format: cell-based; settings: GROUPD2041, read-out: MIC
[10] = tested on: Haemophilus influenzae C.L.; experiment: MIC, standard agar-dilution assay (Table IX); format: cell-based; settings: Ampicillin-sensitive strain, read-out: MIC
[11] = tested on: Haemophilus influenzae 76; experiment: MIC, standard agar-dilution assay (Table IX); format: cell-based; settings: Haemophilus influenzae 76, Ampicillin-resistant strain, read-out: MIC
Escherichia coli N10 = experiment: MIC, standard agar-dilution assay (Table IX); format: cell-based; settings: read-out: MIC
Escherichia coli EC14 = experiment: MIC, standard agar-dilution assay (Table IX); format: cell-based; settings: read-out: MIC
Escherichia coli TEM = experiment: MIC, standard agar-dilution assay (Table IX); format: cell-based; settings: read-out: MIC
Klebsiella X26 = experiment: MIC, standard agar-dilution assay (Table IX); format: cell-based; settings: read-out: MIC
[12] = tested on: Mycoplasma gallisepticum 29C; experiment: MIC, broth-dilution microtiter test (Table X); format: cell-based; settings: Mycoplasmoides gallisepticum, read-out: MIC
Excerpt: (§1) The MIC's in Table X were obtained using conventional broth-dilution microtiter tests.

[13] = tested on: Mycoplasma hyopneumoniae S5972; experiment: MIC, broth-dilution microtiter test (Table X); format: cell-based; settings: Mesomycoplasma hyopneumoniae, read-out: MIC
Excerpt: as §1

Mycoplasma hyorhinis 29E = experiment: MIC, broth-dilution microtiter test (Table X); format: cell-based; settings: read-out: MIC
Excerpt: as §1

Mycoplasma synoviae 40A = experiment: MIC, broth-dilution microtiter test (Table X); format: cell-based; settings: Mycoplasmopsis synoviae, read-out: MIC
Excerpt: as §1

[14] = tested on: Pasteurella hemolytica 22C; experiment: MIC, broth-dilution microtiter test (Table X); format: cell-based; settings: read-out: MIC
Excerpt: as §1

[15] = tested on: Pasteurella multocida 17E; experiment: MIC, broth-dilution microtiter test (Table X); format: cell-based; settings: Bovine isolate, read-out: MIC
Excerpt: as §1

[16] = tested on: Pasteurella multocida 60A; experiment: MIC, broth-dilution microtiter test (Table X); format: cell-based; settings: Avian isolate, read-out: MIC
Excerpt: as §1

Staphylococcus aureus = experiment: MIC, broth-dilution microtiter test (Table X); format: cell-based; settings: read-out: MIC
Excerpt: as §1

Streptococcus sp. 19F = experiment: MIC, broth-dilution microtiter test (Table X); format: cell-based; settings: read-out: MIC
Excerpt: as §1

[17] = tested on: Streptococcus pyogenes C203; experiment: ED50 in mice experimentally infected with S. pyogenes C203 (Table XI); format: in vivo; settings: Streptococcus pyogenes, doses given 1 and 4 hours postinfection, read-out: ED50
Procedure: The C-20 modified derivatives of this invention have shown in vivo antimicrobial activity against experimentally-induced infections in laboratory animals. When two doses of test compound were administered to mice experimentally infected with S. pyogenes C203, the activity observed was measured as an ED50 value [effective dose in mg/kg to protect 50% of the test animals: see Warren Wick, et al., J. Bacteriol. 81, 233-235 (1961)].
^a mg/kg × 2; doses given 1 and 4 hours postinfection

Pasteurella multocida = experiment: Pasteurella infection in one-day-old chicks, subcutaneous administration (Table XII); format: in vivo; settings: Administered subcutaneously, 30 mg/kg × 2, 1 and 4 hours post-challenge
Procedure: Many of the C-20 modified derivatives of this invention have also shown in vivo antibacterial activity against infections induced by gram-negative bacteria. Tables XII and XIII summarize the results of tests in which illustrative compounds were evaluated against a Pasteurella infection in one-day-old chicks. The compounds were administered parenterally or orally after challenge of the chicks with Pasteurella multocida (0.1 ml of a 10^-4 dilution of a twenty-hour tryptose broth culture of an avian P. multocida given subcutaneously). In these tests, unless indicated otherwise, all non-medicated infected chicks died within 24 hours of Pasteurella challenge. In the tests summarized in Table XII, the compounds were administered by subcutaneous injection at a dosage of 30 mg/kg, 1 and 4 hours post-challenge of the chicks with P. multocida. In the tests summarized in Table XIII the compounds were administered in medicated drinking water (at a level of 2 g/gal) available from 4 to 20 hours prior to challenge of the chicks with P. multocida and during the 3 -day test period.
^a Administered subcutaneously; 30 mg/kg × 2

[18] = Titratable groups in 66% aqueous DMF (Tables XIV-XVI); format: physicochemical; settings: 66% aqueous DMF
Excerpt: ^c Run in 66% aqueous DMF
^d Run in 66% aqueous DMF

[19] = read-out: Titratable groups (first value)

SMILES	MIC (Staphyloccus aureus X1.1)	MIC [1]	MIC [2]	MIC [3]	MIC [4]	MIC [5]	MIC [6]	MIC [7]	MIC [8]	MIC [9]	MIC [10]	MIC [11]	MIC (Escherichia coli N10)	MIC (Escherichia coli EC14)	MIC (Escherichia coli TEM)	MIC (Klebsiella X26)	MIC [12]	MIC [13]	MIC (Mycoplasma hyorhinis 29E)	MIC (Mycoplasma synoviae 40A)	other results
CCC1OC(=O)CC(O)C(C)C(OC2OC(C)C(O)C(N(C)C)C2O)C(CCN2CCC(Cc3ccccc3)CC2)CC(C)C(=O)C=CC(C)=CC1COC1OC(C)C(O)C(OC)C1OC (stereo not drawn) [Compound D27, 20-DH-DO-20-(4-benzyl-piperidin-1-yl)desmycosin]	1 µg/mL (≈ 1.07 µM)	1 µg/mL (≈ 1.07 µM)	1 µg/mL (≈ 1.07 µM)	1 µg/mL (≈ 1.07 µM)	1 µg/mL (≈ 1.07 µM)	0.25 µg/mL (≈ 0.268 µM)	0.25 µg/mL (≈ 0.268 µM)	0.5 µg/mL (≈ 0.537 µM)	2 µg/mL (≈ 2.15 µM)	4 µg/mL (≈ 4.3 µM)	32 µg/mL (≈ 34.4 µM)	16 µg/mL (≈ 17.2 µM)	128 µg/mL (≈ 137 µM)	128 µg/mL (≈ 137 µM)	32 µg/mL (≈ 34.4 µM)	64 µg/mL (≈ 68.7 µM)	≤ 0.048 µg/mL	0.39 µg/mL (≈ 0.419 µM)	25 µg/mL (≈ 26.8 µM)	≤ 0.048 µg/mL	MIC [14]: 12.5 µg/mL (≈ 13.4 µM); MIC [15]: 6.25 µg/mL (≈ 6.71 µM); MIC [16]: 12.5 µg/mL (≈ 13.4 µM); MIC (Staphylococcus aureus): 3.12 µg/mL (≈ 3.35 µM); MIC (Streptococcus sp. 19F): 0.78 µg/mL (≈ 0.838 µM); ED50 ([17]; C203, Oral): 16.5 mg/kg; ED50 ([17]; C203, sc, Subcutaneous): 3.81 mg/kg; Number of Deaths/Number Treated (Pasteurella multocida): 8/10
CCC1OC(=O)CC(O)C(C)C(OC2OC(C)C(OC3CC(C)(O)C(O)C(C)O3)C(N(C)C)C2O)C(CCN2CCCCCC2)CC(C)C(=O)C=CC(C)=CC1COC1OC(C)C(O)C(O)C1OC (stereo not drawn) [Compound M3, 20-DH-DO-20-(hexahydroazepin-1-yl)macrocin]	4 µg/mL (≈ 4.06 µM)	8 µg/mL (≈ 8.12 µM)	32 µg/mL (≈ 32.5 µM)	8 µg/mL (≈ 8.12 µM)	8 µg/mL (≈ 8.12 µM)	2 µg/mL (≈ 2.03 µM)	4 µg/mL (≈ 4.06 µM)	2 µg/mL (≈ 2.03 µM)	> 128 µg/mL	> 128 µg/mL	128 µg/mL (≈ 130 µM)	128 µg/mL (≈ 130 µM)	> 128 µg/mL	> 128 µg/mL	> 128 µg/mL	> 128 µg/mL	6.25 µg/mL (≈ 6.34 µM)	12.5 µg/mL (≈ 12.7 µM)	> 50 µg/mL	25 µg/mL (≈ 25.4 µM)	MIC [14]: 50 µg/mL (≈ 50.7 µM); MIC [15]: > 50 µg/mL; MIC [16]: > 50 µg/mL; MIC (Staphylococcus aureus): 12.5 µg/mL (≈ 12.7 µM); MIC (Streptococcus sp. 19F): 50 µg/mL (≈ 50.7 µM); ED50 ([17]; C203, Oral): > 100 mg/kg; ED50 ([17]; C203, sc, Subcutaneous): > 10 mg/kg; pKa ([18]; read-out: Titratable groups): 9.4; pKa [18, 19]: 6.91
CCC1OC(=O)CC(O)C(C)C(OC2OC(C)C(OC3CC(C)(O)C(O)C(C)O3)C(N(C)C)C2O)C(CCN2CCCCCCC2)CC(C)C(=O)C=CC(C)=CC1COC1OC(C)C(O)C(O)C1OC (stereo not drawn) [Compound M4, 20-DH-DO-20-(octahydroazocin-1-yl)macrocin]	4 µg/mL (≈ 4 µM)	4 µg/mL (≈ 4 µM)	8 µg/mL (≈ 8.01 µM)	4 µg/mL (≈ 4 µM)	4 µg/mL (≈ 4 µM)	2 µg/mL (≈ 2 µM)	2 µg/mL (≈ 2 µM)	32 µg/mL (≈ 32 µM)	> 128 µg/mL	> 128 µg/mL	128 µg/mL (≈ 128 µM)	128 µg/mL (≈ 128 µM)	> 128 µg/mL	> 128 µg/mL	> 128 µg/mL	> 128 µg/mL	3.12 µg/mL (≈ 3.12 µM)	6.25 µg/mL (≈ 6.25 µM)	> 50 µg/mL	6.25 µg/mL (≈ 6.25 µM)	MIC [14]: > 50 µg/mL; MIC [15]: > 50 µg/mL; MIC [16]: > 50 µg/mL; MIC (Staphylococcus aureus): 12.5 µg/mL (≈ 12.5 µM); MIC (Streptococcus sp. 19F): 12.5 µg/mL (≈ 12.5 µM); pKa ([18]; read-out: Titratable groups): 9.25; pKa [18, 19]: 6.9
